The structures appear in SMILES notation. A value given as a limit tells only on which side of the number the result lay.

The target in this assay is Bcl-2 protein (Homo sapiens (Human), UniProt P10415). The experiment in a line: Bcl-2 binding TR-FRET (Time-Resolved Fluorescence-Resonance-Energy-Transfer) assay. The conditions noted are these: inhibition constant for binding to Bcl-2 protein. The text has this: The smaller the Ki value, the greater is the binding affinity.
Chain of Bcl-2 protein (P10415 whole entry): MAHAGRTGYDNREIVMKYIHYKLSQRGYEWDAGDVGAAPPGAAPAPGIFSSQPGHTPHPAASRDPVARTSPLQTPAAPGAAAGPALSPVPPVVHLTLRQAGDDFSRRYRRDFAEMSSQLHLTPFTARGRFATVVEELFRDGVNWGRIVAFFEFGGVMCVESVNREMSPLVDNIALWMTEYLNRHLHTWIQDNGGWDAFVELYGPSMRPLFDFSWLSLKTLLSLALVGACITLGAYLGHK
One may read the Ki as the dissociation constant of the complex between target and ligand, obtained from inhibition or displacement. Read a high Ki as a looser hold on the target. `COCCOCCS(=O)(=O)c1ccc(S(=O)(=O)NC(=O)c2ccc(N3CCN(CC4=C(c5ccc(Cl)cc5)CC(C)(C)CC4)CC3)cc2Oc2cnc3[nH]ccc3c2)cc1Cl` [Compound 58, N-[(3-chloro-4-{[2-(2-methoxyethoxyl)ethyl]sulfonyl}phenyl)sulfonyl]-4-(4-{[2-(4-chlorophenyl)-4,4-dimethylcyclohex-1-en-1-yl]methyl}piperazin-1-yl)-2-(1H-pyrrolo[2,3-b]pyridin-5-yloxy)benzamide] returned a Ki of under 0.01 nM.

As to `CC1(C)CCC(CN2CCN(c3ccc(C(=O)NS(=O)(=O)c4ccc(NCCC#N)c([N+](=O)[O-])c4)c(Oc4cnc5[nH]ccc5c4)c3)CC2)=C(c2ccc(Cl)cc2)C1` [Compound 62, 4-(4-{[2-(4-chlorophenyl)-4,4-dimethylcyclohex-1-en-1-yl]methyl}piperazin-1-yl)-N-({4-[(2-cyanoethyl)amino]-3-nitrophenyl}sulfonyl)-2-(1H-pyrrolo[2,3-b]pyridin-5-yloxy)benzamide], the Ki was under 0.01 nM.

Take `CN1CCC(CNc2ccc(S(=O)(=O)NC(=O)c3ccc(N4CCN(CC5=C(c6ccc(Cl)cc6)CC(C)(C)CC5)CC4)cc3Oc3cnc4[nH]ccc4c3)cc2[N+](=O)[O-])CC1` [Compound 65, 4-(4-{[2-(4-chlorophenyl)-4,4-dimethylcyclohex-1-en-1-yl]methyl}piperazin-1-yl)-N-[(4-{[(1-methylpiperidin-4-yl)methyl]amino}-3-nitrophenyl)sulfonyl]-2-(1H-pyrrolo[2,3-b]pyridin-5-yloxy)benzamide]: the Ki is under 0.01 nM.

Compound `CC1(C)CCC(CN2CCN(c3ccc(C(=O)NS(=O)(=O)c4ccc(NCC5COCCN5)c([N+](=O)[O-])c4)c(Oc4cnc5[nH]ccc5c4)c3)CC2)=C(c2ccc(Cl)cc2)C1` (stereo not shown) [Compound 66, 4-(4-{[2-(4-chlorophenyl)-4,4-dimethylcyclohex-1-en-1-yl]methyl}piperazin-1-yl)-N-({4-[(morpholin-3-ylmethyl)amino]-3-nitrophenyl}sulfonyl)-2-(1H-pyrrolo[2,3-b]pyridin-5-yloxy)benzamide] registered an inhibition constant (Ki) of under 0.01 nM.

For the compound `CN1CCN(Nc2ccc(S(=O)(=O)NC(=O)c3ccc(N4CCN(CC5=C(c6ccc(Cl)cc6)CC(C)(C)OC5)CC4)cc3Oc3cnc4[nH]ccc4c3)cc2[N+](=O)[O-])CC1` [Compound 67, 4-(4-{[4-(4-chlorophenyl)-6,6-dimethyl-5,6-dihydro-2H-pyran-3-yl]methyl}piperazin-1-yl)-N-({4-[(4-methylpiperazin-1-yl)amino]-3-nitrophenyl}sulfonyl)-2-(1H-pyrrolo[2,3-b]pyridin-5-yloxy)benzamide], the Ki was under 0.01 nM.

Regarding `O=C(NS(=O)(=O)c1ccc(OCC2(F)CCOCC2)c([N+](=O)[O-])c1)c1ccc(N2CCN(CC3=C(c4ccc(Cl)cc4)CCC4(CCCC4)C3)CC2)cc1Oc1cnc2[nH]ccc2c1` [Compound 73, 4-(4-{[8-(4-chlorophenyl)spiro[4.5]dec-7-en-7-yl]methyl}piperazin-1-yl)-N-({4-[(4-fluorotetrahydro-2H-pyran-4-yl)methoxy]-3-nitrophenyl}sulfonyl)-2-(1H-pyrrolo[2,3-b]pyridin-5-yloxy)benzamide], the Ki was under 0.01 nM.

Take `CC1(C)CCC(c2ccc(Cl)cc2)=C(CN2CCN(c3ccc(C(=O)NS(=O)(=O)c4ccc(NCC5CCOCC5)c([N+](=O)[O-])c4)c(Oc4cnc5[nH]ccc5c4)c3)CC2)C1` [Compound 75, 4-(4-{[2-(4-chlorophenyl)-5,5-dimethylcyclohex-1-en-1-yl]methyl}piperazin-1-yl)-N-({3-nitro-4-[(tetrahydro-2H-pyran-4-ylmethyl)amino]phenyl}sulfonyl)-2-(1H-pyrrolo[2,3-b]pyridin-5-yloxy)benzamide]: the Ki was under 0.01 nM.

`CC1(C)CCC(CN2CCN(c3ccc(C(=O)NS(=O)(=O)c4ccc(OCC5COCCN5)c([N+](=O)[O-])c4)c(Oc4cnc5[nH]ccc5c4)c3)CC2)=C(c2ccc(Cl)cc2)C1` (stereo not shown) [Compound 78, 4-(4-{[2-(4-chlorophenyl)-4,4-dimethylcyclohex-1-en-1-yl]methyl}piperazin-1-yl)-N-{[4-(morpholin-3-ylmethoxy)-3-nitrophenyl]sulfonyl}-2-(1H-pyrrolo[2,3-b]pyridin-5-yloxy)benzamide]: the Ki was under 0.01 nM.

For `O=C(NS(=O)(=O)c1ccc(NCC2CCOCC2)c([N+](=O)[O-])c1)c1ccc(N2CCN(CC3=C(c4ccc(Cl)cc4)CCC4(CCCC4)C3)CC2)cc1Oc1cnc2[nH]ccc2c1` [Compound 79, 4-(4-{[8-(4-chlorophenyl)spiro[4.5]dec-7-en-7-yl]methyl}piperazin-1-yl)-N-({3-nitro-4-[(tetrahydro-2H-pyran-4-ylmethyl)amino]phenyl}sulfonyl)-2-(1H-pyrrolo[2,3-b]pyridin-5-yloxy)benzamide], the Ki is under 0.01 nM.

The compound `CC1(C)CCC(CN2CCN(c3ccc(C(=O)NS(=O)(=O)c4ccc(NC5CCN(S(C)(=O)=O)CC5)c([N+](=O)[O-])c4)c(Oc4cnc5[nH]ccc5c4)c3)CC2)=C(c2ccc(Cl)cc2)C1` [Compound 80, 4-(4-{[2-(4-chlorophenyl)-4,4-dimethylcyclohex-1-en-1-yl]methyl}piperazin-1-yl)-N-[(4-{[1-(methylsulfonyl)piperidin-4-yl]amino}-3-nitrophenyl)sulfonyl]-2-(1H-pyrrolo[2,3-b]pyridin-5-yloxy)benzamide] came in with a Ki of under 0.01 nM.

In turn, `CC1(C)CCC(CN2CCN(c3ccc(C(=O)NS(=O)(=O)c4ccc(NC5CCS(=O)(=O)CC5)c([N+](=O)[O-])c4)c(Oc4cnc5[nH]ccc5c4)c3)CC2)=C(c2ccc(Cl)cc2)C1` [Compound 81, 4-(4-{[2-(4-chlorophenyl)-4,4-dimethylcyclohex-1-en-1-yl]methyl}piperazin-1-yl)-N-({4-[(1,1-dioxidotetrahydro-2H-thiopyran-4-yl)amino]-3-nitrophenyl}sulfonyl)-2-(1H-pyrrolo[2,3-b]pyridin-5-yloxy)benzamide] came in with an inhibition constant Ki of under 0.01 nM.

The compound `CC1(C)CCC(CN2CCN(c3ccc(C(=O)NS(=O)(=O)c4ccc(NC5CCN(C6CC6)CC5)c([N+](=O)[O-])c4)c(Oc4cnc5[nH]ccc5c4)c3)CC2)=C(c2ccc(Cl)cc2)C1` [Compound 98, 4-(4-{[2-(4-chlorophenyl)-4,4-dimethylcyclohex-1-en-1-yl]methyl}piperazin-1-yl)-N-({4-[(1-cyclopropylpiperidin-4-yl)amino]-3-nitrophenyl}sulfonyl)-2-(1H-pyrrolo[2,3-b]pyridin-5-yloxy)benzamide] gave a Ki of under 0.01 nM.

Compound `CCN1CCOCC1COc1ccc(S(=O)(=O)NC(=O)c2ccc(N3CCN(CC4=C(c5ccc(Cl)cc5)CC(C)(C)CC4)CC3)cc2Oc2cnc3[nH]ccc3c2)cc1[N+](=O)[O-]` (stereo not shown) [Compound 103, 4-(4-{[2-(4-chlorophenyl)-4,4-dimethylcyclohex-1-en-1-yl]methyl}piperazin-1-yl)-N-({4-[(4-ethylmorpholin-3-yl)methoxy]-3-nitrophenyl}sulfonyl)-2-(1H-pyrrolo[2,3-b]pyridin-5-yloxy)benzamide] displayed a Ki of under 0.01 nM.

In turn, `CC1(C)CCC(CN2CCN(c3ccc(C(=O)NS(=O)(=O)c4ccc(N[C@H]5CCCN(C6CCOCC6)C5)c([N+](=O)[O-])c4)c(Oc4cnc5[nH]ccc5c4)c3)CC2)=C(c2ccc(Cl)cc2)C1` [Compound 105, 4-(4-{[2-(4-chlorophenyl)-4,4-dimethylcyclohex-1-en-1-yl]methyl}piperazin-1-yl)-N-[(3-nitro-4-{[(3S)-1-tetrahydro-2H-pyran-4-ylpiperidin-3-yl]amino}phenyl)sulfonyl]-2-(1H-pyrrolo[2,3-b]pyridin-5-yloxy)benzamide] came in with a Ki of under 0.01 nM.

For the compound `CC1(C)CCC(CN2CCN(c3ccc(C(=O)NS(=O)(=O)c4ccc(NN5CCS(=O)(=O)CC5)c([N+](=O)[O-])c4)c(Oc4cnc5[nH]ccc5c4)c3)CC2)=C(c2ccc(Cl)cc2)C1` [Compound 107, trans-4-(4-{[2-(4-chlorophenyl)-4,4-dimethylcyclohex-1-en-1-yl]methyl}piperazin-1-yl)-N-({4-[(1,1-dioxidothiomorpholin-4-yl)amino]-3-nitrophenyl}sulfonyl)-2-(1H-pyrrolo[2,3-b]pyridin-5-yloxy)benzamide], the affinity corresponds to a Ki of 0.035 nM. This counts as picomolar.

In turn, `CC1(C)CCC(CN2CCN(c3ccc(C(=O)NS(=O)(=O)c4ccc(NCC5(N)CCOCC5)c([N+](=O)[O-])c4)c(Oc4cnc5[nH]ccc5c4)c3)CC2)=C(c2ccc(Cl)cc2)C1` [Compound 108, N-[(4-{[(4-aminotetrahydro-2H-pyran-4-yl)methyl]amino}-3-nitrophenyl)sulfonyl]-4-(4-{[2-(4-chlorophenyl)-4,4-dimethylcyclohex-1-en-1-yl]methyl}piperazin-1-yl)-2-(1H-pyrrolo[2,3-b]pyridin-5-yloxy)benzamide] registered a Ki of under 0.01 nM.

For `CC1(C)CCC(CN2CCN(c3ccc(C(=O)NS(=O)(=O)c4ccc(N[C@H]5CC[C@@H](N6CCOCC6)C5)c([N+](=O)[O-])c4)c(Oc4cnc5[nH]ccc5c4)c3)CC2)=C(c2ccc(Cl)cc2)C1` [Compound 111, 4-(4-{[2-(4-chlorophenyl)-4,4-dimethylcyclohex-1-en-1-yl]methyl}piperazin-1-yl)-N-[(4-{[(1S,3R)-3-morpholin-4-ylcyclopentyl]amino}-3-nitrophenyl)sulfonyl]-2-(1H-pyrrolo[2,3-b]pyridin-5-yloxy)benzamide], the inhibitory constant (Ki) was under 0.01 nM.

`CC1(C)CCC(CN2CCN(c3ccc(C(=O)NS(=O)(=O)c4ccc(N[C@@H]5CC[C@H](N6CCOCC6)C5)c([N+](=O)[O-])c4)c(Oc4cnc5[nH]ccc5c4)c3)CC2)=C(c2ccc(Cl)cc2)C1` [Compound 112, 4-(4-{[2-(4-chlorophenyl)-4,4-dimethylcyclohex-1-en-1-yl]methyl}piperazin-1-yl)-N-[(4-{[(1R,3S)-3-morpholin-4-ylcyclopentyl]amino}-3-nitrophenyl)sulfonyl]-2-(1H-pyrrolo[2,3-b]pyridin-5-yloxy)benzamide]: the Ki was under 0.01 nM.

As to `CC1(C)CCC(CN2CCN(c3ccc(C(=O)NS(=O)(=O)c4ccc(NCC5CNCCO5)c([N+](=O)[O-])c4)c(Oc4cnc5[nH]ccc5c4)c3)CC2)=C(c2ccc(Cl)cc2)C1` (stereo not shown) [Compound 113, 4-(4-{[2-(4-chlorophenyl)-4,4-dimethylcyclohex-1-en-1-yl]methyl}piperazin-1-yl)-N-({4-[(morpholin-2-ylmethyl)amino]-3-nitrophenyl}sulfonyl)-2-(1H-pyrrolo[2,3-b]pyridin-5-yloxy)benzamide], the Ki was under 0.01 nM.

The values above are taken from patent publication US10213433B2 (AbbVie Inc., priority 2010, dated 2019).
